# Measurements taken from PMC4931477, “Electronic Biosensing with Functionalized rGO FETs” (Biosensors, 2016).
# pKd: −log10 of the molar value.
# Tests used:
# [1] = target: T1, OBP14 (odorant binding protein 14) (Apis mellifera, UniProt A0A8U0WQC3); assay: rGO-FET biosensor, equilibrium titration, Langmuir isotherm; details: protein covalently immobilized via PBSE on rGO gate; aqueous solution; titration determination
# T1 construct: recombinant, bacterial expression, purified by chromatography and Superose-12 gel filtration; covalently immobilized via PBSE linker on rGO FET gate
# T1 sequence (A0A8U0WQC3 17-135): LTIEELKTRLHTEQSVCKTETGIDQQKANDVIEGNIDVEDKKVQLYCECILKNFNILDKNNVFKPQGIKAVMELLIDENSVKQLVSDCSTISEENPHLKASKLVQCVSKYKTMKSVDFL
# [2] = target: T1, OBP14 (odorant binding protein 14); assay: rGO-FET biosensor, real-time kinetics (koff/kon), source-drain current
# [3] = target: T1, OBP14 (odorant binding protein 14); assay: rGO-FET biosensor, shift of ISD-vs-VG curves with ligand concentration; details: protein covalently immobilized via PBSE on rGO gate; liquid gate, VSD = 50 mV
Structure (SMILES),KA [1],pKd [2],"rGO-FET biosensor, shift of ISD-vs-VG curves with ligand concentration [3]"
COc1cc(CC(=O)O)ccc1O [homovanillic acid],2.5 × 10^5,5.15,–
C=CCc1ccc(O)c(OC)c1 [Eugenol],–,–,OBP14 functionalized rGO FET-biosensor device at different Eugenol concentrations
